Laboratory results taken from US8552013B2, “Heterocyclic compounds based on N6-substituted adenine, methods of their preparation, their use for preparation of drugs, cosmetic preparations and growth regulators, pharmaceutical preparations, cosmetic preparations and growth regulators containing these compounds” (USTAV Experimentalni Botaniky Akademie Ved Ceske Republiky, priority 2001, dated 2013).
pIC50: −log10 of the molar value.

What was measured:
B16-F0 melanoma = experiment: Calcein AM cytotoxicity, B16-F0; type: cell-based; details: Mus musculus, B16F0, 72 h, read-out: IC 50, B16-F0
Text: One of the parameters used, as the basis for cytotoxicity assays, is the metabolic activity of viable cells. For example, a microtiter assay, which uses the Calcein AM, is now widely used to quantitate cell proliferation and cytotoxicity. For instance, this assay is used in drug screening programs and in chemosensitivity testing. Because only metabolically active cells cleave Calcein AM, these assays detect viable cells exclusively. The quantity of reduced Calcein AM corresponds to the number of vital cells in the culture.
Human T-lymphoblastic leukemia cell line CEM; promyelocytic HL-60 and monocytic U937 leukemias; breast carcinoma cell lines MCF-7, BT549, MDA-MB-231; glioblastoma U87MG cells; cervical carcinoma cells HELA; sarcoma cells U2OS and Saos2; hepatocellular carcinoma HepG2; mouse fibroblasts NIH3T3; mouse immortalized bone marrow macrophages B2.4 and B10A.4; P388D1 and L1210 leukemia; B16 and B16F10 melanomas were used for routine screening of compounds. The cells were maintained in Nunc/Corning 80 cm^2 plastic tissue culture flasks and cultured in cell culture medium (DMEM with 5 g/l glucose, 2 mM glutamine, 100 U/ml penicillin, 100 μg/ml streptomycin, 10% fetal calf serum and sodium bicarbonate).
The cell suspensions that were prepared and diluted according to the particular cell type and the expected target cell density (2.500-30.000 cells per well based on cell growth characteristics) were added by pipette (80 μl) into 96/well microtiter plates. Inoculates were allowed a pre-incubation period of 24 hours at 37° C. and 5% CO2 for stabilisation. Four-fold dilutions of the intended test concentration were added at time zero in 20 μl aliquots to the microtiter plate wells. Usually, test compound was evaluated at six 4-fold dilutions. In routine testing, the highest well concentration was […], but it can be the matter of change dependent on the agent. All drug concentrations were examined in duplicates. Incubations of cells with the test compounds lasted for 72 hours at 37° C., in 5% CO2 atmosphere and 100% humidity. At the end of incubation period, the cells were assayed by using the Calcein AM. Ten microliters of the stock solution were pipetted into each well and incubated further for 1 hours. Fluorescence (FD) was measured with the Labsystem FIA Reader Fluoroscan Ascent (UK). The tumour cell survival (GI50) was calculated using the following equitation: TCS═(FDdrug exposed well/mean FDcontrol wells)×100%. The GI50 value, the drug concentration lethal to 50% of the tumour cells, was calculated from the obtained dose response curves (FIG. 1).

MCF-7 cell line = experiment: Apoptosis in MCF-7, Anexin FITC V / propidium iodide staining; type: cell-based, human; details: FIG. 3; 6 h, 20 μM apoptotic cells
Description: A MCF-7, apoptotic cells: 6 h, 12, 20 μM, B MCF-7, secondary necrotic cells (i.e. necrosis following apoptosis), 12 h, 12, 40 μM; C MCF-7, necrotic cells, 24 h, 12, 40 μM. Anexin FITC V (Mol. Probes) and propidium iodide staining: anexin—green, PI—red.
Analysed using “Olympus image analysis” after treatment of MCF-7 tumour cells by 6-(2-hydroxy-3-methoxybenzylamino)purine. A,B—control cells without treatment; C,D—apoptotic cells (condensation of chromatin); A,C—fluorescence microscopy; B,D—fluorescence image analysis.

[1] = test system: human diploid fibroblasts (HCA cells); experiment: Senescence, beta-galactosidase staining of human diploid fibroblasts; type: cell-based
How it was run: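 HCA fibroblasts at passages 25, 45 and 80 were fixed for 5 min at room temperature in 2% formaldehyde/0.2% glutaraldehyde. They were then incubated at 37 °C without CO2 for 1 to 16 hours with X-gal 1 mg/ml, 5 mM ferri- and ferrocyanide and 2 mM MgCl2 in citric/phosphate buffer, pH 6.0. Blue-stained cells were scored.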

[2] = test system: Triticum aestivum cv. Hereward leaf tips; experiment: Retention of chlorophyll in excised wheat leaf tips; type: in vivo; details: chlorophyll retention at the concentration with highest activity
How it was run: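 Tips of first leaves from 7-day wheat (cv. Hereward) seedlings kept on compound solutions (10^−8 to 10^−4 M, from DMSO stock) for 96 h in the dark at 25 °C. Chlorophyll extracted in 80% ethanol at 80 °C and read at 665 nm. Activity at the best concentration expressed relative to 10^−4 M BAP (100%), five replicates.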

[3] = test system: Amaranthus caudatus cotyledon/hypocotyl explants; experiment: Amaranthus bioassay, betacyanin content; type: in vivo; details: betacyanin content at the concentration with highest activity

COc1cccc(CNc2ncnc3nc[nH]c23)c1O [6-(2-hydroxy-3-methoxybenzylamino)purine] was tested, and the pIC50 (B16-F0 melanoma) was 4.16, the “apoptosis in MCF-7 tumour cells” value (MCF-7 cell line) was “induced apoptosis” and the “SENESCENT CELLS (%) HCA25” value ([1]; passage 25) was 4%. For the same molecule, the “SENESCENT CELLS (%) HCA45” value ([1]; passage 45) was 3%, the “SENESCENT CELLS (%) HCA80” value ([1]; passage 80) was 20% and the “Activity (%) [10^−4 mol · l^−1 BAP = 100%]” value [2] was 34 (±5) %. The “activity (%) [10^−5 mol · l^−1 BAP = 100%]” value [3] was 19 (±3) %.
